Results from patent US6432433B1, “Liquid biocidal composition of a formaldehyde adduct and an isothiazolone and method of use” (ISP Investments Inc., priority 2000, dated 2002).
“And” between values parts separate entries of the source, which are not always exact repeats. Equal entries are not always repeated. Where two headings read alike, the source gives them in different places.

Legend:
Assay type in all cases: cell-based
[1] = tested on: Bacillus subtilis (ATCC 27328); assay: MIC on Tryptic Soy Agar; details: for MIC: Bacillus subtilis, read-out: MIC end point, compound alone (QA / QB)
Protocol: (§1) The agar was inoculated to contain about 1×10^6 CFU/ml bacterial cells or fungal spores.
(§2) The MIC were taken as end points of activity. End points for the mixture of NMPFA (DMO, MBO or HMAE) and BIT were then compared with the end points for the pure active compound when employed individually.
(§3) Synergism was determined by a commonly used method described by Kull, A. C., Eisman, P. C, Sylwestrowicz ,H., D. and Mayer, R. L. (1961). Applied Microbiology, 9:538 using the ratio determined by:
(§4) Qa/QA+Qb/QB=Synergy Index (SI)
(§5) where QA is the concentration of the formaldehyde adduct in parts per million (ppm), acting alone, which produced an end point. Qa is the concentration of the formaldehyde adduct in ppm, in the mixture, which produced an end point. QB is the concentration of BIT in ppm, acting alone, which produced an end point and Qb is the concentration of BIT in ppm, in the mixture, which produced an end point.
(§6) When the sum of Qa/QA+Qb/QB is greater than one, antagonism is indicated. When the sum is equal to one, additivity is indicated.

[2] = tested on: Gliocladium virens (ATCC 9645); assay: MIC on Potato Dextrose Agar; details: for MIC: Trichoderma virens
Protocol: as §1, §2, §3, §4, §5, §6

[3] = tested on: Enterobacter cloacae (ATCC 13047); assay: MIC on Tryptic Soy Agar; details: E. cloacae; TSA, 32° C., 48 hours
Protocol: as §1, §2, §3, §4, §5, §6

[4] = tested on: Escherichia coli (ATCC 11229); assay: MIC on Tryptic Soy Agar; details: E. coli; TSA, 32° C., 48 hours
Protocol: as §1, §2, §3, §4, §5, §6

[5] = tested on: Pseudomonas aeruginosa (ATCC 10145); assay: MIC on Tryptic Soy Agar; details: P. aeruginosa; TSA, 32° C., 48 hours
Protocol: as §1, §2, §3, §4, §5, §6

[6] = tested on: Staphylococcus aureus (ATCC 6538); assay: MIC on Tryptic Soy Agar; details: S. aureus; TSA, 32° C., 48 hours
Protocol: as §1, §2, §3, §4, §5, §6

[7] = tested on: Aspergillus niger (ATCC 6275); assay: MIC on Potato Dextrose Agar; details: A. niger; PDA, 28°, 7-10 days
Protocol: as §1, §2, §3, §4, §5, §6

[8] = tested on: Aureobasidium pullulans (ATCC 9348); assay: MIC on Potato Dextrose Agar; details: A. pullulans; PDA, 28°, 7-10 days
Protocol: as §1, §2, §3, §4, §5, §6

[9] = tested on: Chaetomium globosum (ATCC 6205); assay: MIC on Potato Dextrose Agar; details: C. globosum; PDA, 28°, 7-10 days
Protocol: as §1, §2, §3, §4, §5, §6

[10] = tested on: Penicillium funiculosum (ATCC 11797); assay: MIC on Potato Dextrose Agar; details: P. funiculosum; PDA, 28°, 7-10 days
Protocol: as §1, §2, §3, §4, §5, §6

[11] = tested on: mixed culture of P. aeruginosa, E. cloacae, B. subtilis, B. megaterium and B. licheniformis; assay: In-can preservation of latex paint (ASTM D2574-97), two challenges; details: polyvinyl acrylic paint, 32° C., mixed inoculum, rechallenged after 7 days
Protocol: The efficacy of each individual compound or their combination was measured in a latex paint artificially contaminated with a mixed inoculum. The microbiological evaluations shown as examples, are based on ASTM D2574-97, “Resistance of emulsion paints in the container to the attack of microorganisms”. Briefly, paint samples (e.g. polyvinyl acrylic, PCL 717) were prepared to contain different concentrations of each compound or their mixtures in different concentrations and ratios. Each paint sample thus prepared was then inoculated with a mixed culture of P. aeruginosa, E. cloacae, B. subtilis, B. megaterium and B. licheniformis (final concentration of about 10^6 CFU/ml) and rechallenged after 7 days (final concentration of about 10^7 CFU/ml). Paint samples were incubated at 32° C. for the duration of the test and sampled for the presence of viable bacteria on TSA plates. A paint sample was considered appropriately preserved if no bacterial growth was detected after six days in both challenge assays. […]
1. The end-point activity in ppm obtained when no viable bacteria was detected after both challenges in a paint sample containing the compound A alone (QA), for compound A in the mixture (Qa), for compound B alone (QB) or for compound B in the mixture (Qb). […]
3. The calculated Synergy Index (SI), as described above

[12] = B. subtilis, TSA, 32° C., 48 hours

| SMILES | MIC ([1]; ATCC27328, B. subtilis, TSA, 32° C., 48 hours) [µg/mL] | MIC ([2]; ATCC9645, G. virens, PDA, 28°, 7-10 days, read-out: MIC end point, compound alone (QA / QB)) [µg/mL] | MIC ([1]; ATCC27328, 48 h) [µg/mL] | MIC ([2]; ATCC9645, read-out: MIC end point, compound alone (QA / QB)) [µg/mL] | MIC end point, compound alone (QA / QB) [1, 12] | MIC end point, compound alone (QA / QB) [3] | MIC end point, compound alone (QA / QB) [4] | MIC end point, compound alone (QA / QB) [5] | MIC end point, compound alone (QA / QB) [6] | MIC end point, compound alone (QA / QB) [7] | MIC end point, compound alone (QA / QB) [8] [ppm] | MIC end point, compound alone (QA / QB) [9] | MIC end point, compound alone (QA / QB) ([2]; G. virens, PDA, 28°, 7-10 days) | MIC end point, compound alone (QA / QB) [10] [ppm] | End-point activity (no viable bacteria detected after both challenges), compound alone (QA / QB) [11] |
| --- | --- | --- | --- | --- | --- | --- | --- | --- | --- | --- | --- | --- | --- | --- | --- |
| CC1(C)COCN1 [DMO, 4,4-dimethyloxazolidine] | 385 | 770 | – | – | – | – | – | – | – | – | – | – | – | – | – |
| OCCNCO [HMAE, 2-[(hydroxymethyl)amino]ethanol] | – | – | 250 | 1000 | – | – | – | – | – | – | – | – | – | – | – |
| CC(O)CN(C)CC(C)OCO (centres unmarked) [NMPFA, N-methyl-2-hydroxymethyleneoxypropyl-2′-hydroxypropylamine] | – | – | – | – | 500 ppm | 1,000 ppm | 1,000 ppm | 1,000 ppm | 1,000 ppm | 1,000 ppm | 500 | >2,000 ppm | >2,000 ppm | 250 | 1,000 ppm |
| O=c1[nH]sc2ccccc12 [BIT, 1,2-benzisothiazolin-3-one, reference compound] | – | – | – | – | 25.0 ppm and 25 ppm | 2500 ppm | 50.0 ppm | 250.0 ppm | 50 ppm | 250 ppm | 50 | 250 ppm | 100 ppm | 25 | 170.0 ppm |
